The values below come from publication PMC6086658, “Unified mechanisms for self-RNA recognition by RIG-I Singleton-Merten syndrome variants” (eLife, 2018).

{Cy3} = Cy3 fluorescent label

The target of data set [1] is T1, RIG-I C268F (Homo sapiens, UniProt O95786, C268F).
T1 construct: made in house; host or cells: High Five (Trichoplusia ni) insect cells, baculovirus, pFBDM vector
T1 sequence (O95786 1-925 C268F): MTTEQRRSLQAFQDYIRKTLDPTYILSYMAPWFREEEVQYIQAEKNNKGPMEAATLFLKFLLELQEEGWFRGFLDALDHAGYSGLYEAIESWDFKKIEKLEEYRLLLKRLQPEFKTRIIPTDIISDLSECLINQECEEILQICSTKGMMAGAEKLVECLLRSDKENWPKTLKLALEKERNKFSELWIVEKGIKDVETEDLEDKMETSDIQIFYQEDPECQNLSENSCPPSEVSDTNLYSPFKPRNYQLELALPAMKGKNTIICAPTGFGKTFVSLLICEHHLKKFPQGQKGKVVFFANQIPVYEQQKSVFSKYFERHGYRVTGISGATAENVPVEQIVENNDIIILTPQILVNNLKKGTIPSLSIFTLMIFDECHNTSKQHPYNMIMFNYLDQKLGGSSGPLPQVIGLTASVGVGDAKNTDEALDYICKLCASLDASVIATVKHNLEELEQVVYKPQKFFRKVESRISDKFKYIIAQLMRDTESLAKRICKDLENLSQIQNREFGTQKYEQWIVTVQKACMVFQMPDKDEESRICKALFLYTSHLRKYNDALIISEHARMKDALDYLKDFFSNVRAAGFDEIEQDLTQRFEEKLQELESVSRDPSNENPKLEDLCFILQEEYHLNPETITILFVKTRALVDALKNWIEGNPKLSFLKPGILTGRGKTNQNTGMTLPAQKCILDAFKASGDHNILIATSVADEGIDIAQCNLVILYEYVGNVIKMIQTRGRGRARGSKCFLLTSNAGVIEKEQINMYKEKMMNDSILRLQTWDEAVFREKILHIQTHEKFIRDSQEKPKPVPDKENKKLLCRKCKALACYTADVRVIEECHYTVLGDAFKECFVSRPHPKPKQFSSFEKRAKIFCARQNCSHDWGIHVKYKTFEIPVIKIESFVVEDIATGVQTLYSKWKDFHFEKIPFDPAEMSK
Nature of the data set: Fluorescence anisotropy RNA binding. Conditions: 10 nM labeled RNA, one-site binding fit, n = 4. As for the experimental part:
(§1) Affinities of full-length RIG-I or RIG-I C268F (1–925, N-terminal His-tag) to a Cy3-labeled hpRNA (5'-Cy3-[…]-3', purchased from Biomers, Ulm, Germany) were determined using fluorescence anisotropy. All samples were prepared in 96-well black chimney microplates (Greiner Bio-One, Kremsmünster, Austria). 10 nM RNA was pre-incubated with different protein concentrations (2.4 nM – 5 µM) for 15 min at room temperature in assay buffer (25 mM HEPES, 50 mM KCl, 5 mM MgCl2, 1 mM DTT, pH 7). Fluorescence anisotropy was measured after the addition of 5 mM ATP using a TECAN M1000 microplate reader (Tecan, Männedorf, Switzerland) at λex/em = 530/570 nm and gain = 130 during a time course of 25 min in 1 min intervals. Assays were performed four times in independent experiments using the same protein purification batch. For determination of affinities, anisotropy values between 15 and 20 min measuring time were averaged and fit to the following single-site binding model using R ([R Development Core Team, 2013]):(1) y=Bmax[P]/P+KD where y is the observed anisotropy, [P] is the protein concentration, Bmax is the maximal anisotropy and KD is the dissociation constant. Fitting was performed globally on all available datasets. Representative values in figures are mean values ± SD.

The target in data set [2] is T2, RIG-I (Homo sapiens, UniProt O95786).
T2 construct: Recombinant full-length human RIG-I or RIG-I single amino acid mutants (1–925, N-terminal His-tag); made in house; host or cells: High Five (Trichoplusia ni) insect cells, baculovirus, pFBDM vector
T2 sequence (O95786 1-925): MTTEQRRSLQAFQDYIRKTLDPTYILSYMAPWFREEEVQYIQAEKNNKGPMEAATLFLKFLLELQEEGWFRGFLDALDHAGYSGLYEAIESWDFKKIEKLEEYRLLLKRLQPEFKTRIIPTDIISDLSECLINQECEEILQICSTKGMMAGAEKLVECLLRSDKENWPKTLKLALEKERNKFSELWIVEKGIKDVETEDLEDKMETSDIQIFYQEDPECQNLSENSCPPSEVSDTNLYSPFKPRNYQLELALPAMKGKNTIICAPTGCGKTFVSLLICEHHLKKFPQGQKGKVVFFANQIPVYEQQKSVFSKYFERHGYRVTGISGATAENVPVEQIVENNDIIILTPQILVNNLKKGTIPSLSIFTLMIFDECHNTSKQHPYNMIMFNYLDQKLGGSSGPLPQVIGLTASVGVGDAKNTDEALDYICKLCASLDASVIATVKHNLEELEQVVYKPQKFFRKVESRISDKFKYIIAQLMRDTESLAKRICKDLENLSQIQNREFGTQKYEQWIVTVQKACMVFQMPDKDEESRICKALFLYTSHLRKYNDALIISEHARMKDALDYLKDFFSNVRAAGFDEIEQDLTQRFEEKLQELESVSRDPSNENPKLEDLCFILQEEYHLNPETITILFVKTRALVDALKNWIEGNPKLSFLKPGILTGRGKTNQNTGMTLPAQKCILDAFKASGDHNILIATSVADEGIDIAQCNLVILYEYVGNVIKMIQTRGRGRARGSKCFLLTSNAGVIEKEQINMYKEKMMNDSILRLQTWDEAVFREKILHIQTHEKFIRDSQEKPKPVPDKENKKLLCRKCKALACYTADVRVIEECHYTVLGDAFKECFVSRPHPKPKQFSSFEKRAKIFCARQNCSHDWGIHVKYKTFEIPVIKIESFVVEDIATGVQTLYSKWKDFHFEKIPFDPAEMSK
Nature of the data set: Fluorescence anisotropy RNA binding. Conditions: 10 nM labeled RNA, one-site binding fit, n = 4. On the procedure: as §1

Data set [3] addresses T1, RIG-I C268F. Nature of the data set: MANT-nucleotide binding, tryptophan fluorescence FRET. On the procedure: (§2) Binding of MANT-ATP and MANT-ATPγS to different full-length RIG-I mutants (1–925, N-terminal His-tag) was determined via Förster resonance energy transfer from RIG-I to MANT-ATP (Jena Bioscience, Jena, Germany). All samples were prepared in 96-well black chimney microplates. 2.2 µM protein and equimolar concentrations of a 14mer dsRNA (5'-CGACGCUAGCGUCG-3', see 'Protein crystalization') were pre-incubated with different MANT-ATP concentrations (0.2 µM – 200 µM) for 15 min at room temperature in assay buffer (25 mM HEPES, 50 mM NaCl, 5 mM MgCl2, 1 mM DTT, pH 7). Fluorescence of MANT-ATP was measured in a TECAN M1000 microplate reader at λex/em = 290/448 nm, gain = 170 using an average of five reads per well. Assays were performed four times in independent experiments using the same protein purification batch. For determination of affinities fluorescence values were fitted to Equation (1) using R, where y is the fluorescence, [P] is the protein concentration, Bmax is the maximal fluorescence and KD is the dissociation constant. Fitting was performed globally on all available datasets. Representative values in figures are mean values ± SD.

Data set [4] addresses T2, RIG-I. The description is as above. Conditions: n = 4. On the procedure: as §2, with “All samples were prepared in 96-well black chimney microplates. 2.2 µM protein and equimolar concentrations of a 14mer dsRNA (5'-CGACGCUAGCGUCG-3', see 'Protein crystalization') were pre-incubated with different MANT-ATP concentrations (0.2 µM – 200 µM) for 15 min at room temperature in assay buffer (25 mM HEPES, 50 mM NaCl, 5 mM MgCl2, 1 mM DTT, pH 7).” left out

For “5'-Cy3-CCACCCGCCCCCCUAGUGAGGGGGGCGGGCC-3' (RNA, 5' {Cy3}, backbone not given here; RNA hairpin ligand with non-base-paired ends, used in fluorescence anisotropy binding assays) [fluorescently labeled 14mer dsRNA, Cy3-labeled hairpin RNA containing non-base-paired RNA ends, purchased from Biomers]”, the Kd in data set [1] (absence of ATP, read-out: KD, RIG-I C268F) amounted to 0.098 µM; in data set [1] (presence of 5 mM ATP, read-out: KD, RIG-I C268F + ATP), 0.058 µM; in data set [2] (absence of ATP, read-out: KD, RIG-I) it was 0.54 µM; in data set [2] (presence of 5 mM ATP, read-out: KD, RIG-I + ATP) it was 1.04 µM.
For the substance MANT-ATPγS, the dissociation constant Kd in data set [3] (absence of RNA, n = 4, read-out: Affinity (KD) to RIG-I C268F) was 116 ± 13 µM; in data set [3] (presence of equimolar 14mer dsRNA, n.f. = no fit possible as no saturation was reached, read-out: Affinity (KD) to RIG-I C268F + RNA), 147 ± 55 µM; in data set [4] (absence of RNA, full-length His-RIG-I, read-out: Affinity (KD) to RIG-I) it was 58 ± 7 µM; in data set [4] (presence of equimolar 14mer dsRNA, read-out: Affinity (KD) to RIG-I + RNA) it was 11 ± 1 µM.

A word on the Kd: it is the equilibrium constant for the complex coming apart.
